{"source": "paper PMC10321576", "about": "“Cyclic peptides target the aromatic cage of a PHD-finger reader domain to modulate epigenetic protein function” (Chemical Science, 2023)", "key": {"HisTrx-DIDO PHD": {"molecular_target": "T1, HisTrx-DIDO PHD (Homo sapiens, UniProt Q9BTC0)", "T1 construct": "HisTrx-DIDO PHD", "assay": "ITC binding", "conditions": "50 mM HEPES, 100 mM NaCl, pH 7.4, 25 °C; 1:1 binding model", "method": "(§1) Figure S10. ITC results: Tabulated values from 1:1 binding model and conditions\n(§2) ITC buffer = 50 mM HEPES, 100 mM NaCl, pH 7.4, 0.2 µm filtered), at 25 °C. Dual = PHD+JmjC. HisTrx\n(§3) = His 6+thioredoxin tag, GST = glutathione S -transferase tag, ZB = Z -basic tag. Syringe contained\n(§4) peptide solution in buffer. Cell contained protein solution in buffer.\n(§5) (1 picture or pasted object on this page, not shown here)"}, "KDM7A PHD": {"molecular_target": "T2, KDM7A PHD (Homo sapiens, UniProt Q6ZMT4)", "T2 construct": "KDM7A 38-98; made in house", "T2 sequence (Q6ZMT4 38-98)": "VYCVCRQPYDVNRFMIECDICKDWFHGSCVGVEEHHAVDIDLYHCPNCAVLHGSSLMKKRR", "assay": "ITC binding", "method": "as §1, §2, §3, §4, §5"}, "KDM7B PHD": {"molecular_target": "T3, KDM7B PHD (Homo sapiens, UniProt Q9UPP1)", "T3 construct": "KDM7B 1-66; made in house", "T3 sequence (Q9UPP1 1-66 isoform Q9UPP1-2)": "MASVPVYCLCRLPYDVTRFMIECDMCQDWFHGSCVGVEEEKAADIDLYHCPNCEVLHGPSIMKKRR", "assay": "ITC binding", "method": "as §1, §2, §3, §4, §5"}, "DIDO PHD": {"molecular_target": "T4, DIDO PHD (Homo sapiens, UniProt Q9BTC0)", "T4 construct": "DIDO PHD", "T4 sequence (Q9BTC0 268-322 limits assumed)": "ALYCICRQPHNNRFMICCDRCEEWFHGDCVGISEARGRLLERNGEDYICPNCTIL", "assay": "AlphaScreen displacement of H3 1-21K4me3-Bt", "type": "binding", "conditions": "average of two independent experiments", "description": "(§6) (14 pictures or pasted objects on this page, not shown here)"}, "ING2 PHD": {"molecular_target": "T5, ING2 PHD (Homo sapiens, UniProt Q9H160)", "T5 construct": "ING2 PHD", "T5 sequence (Q9H160 212-261 limits assumed)": "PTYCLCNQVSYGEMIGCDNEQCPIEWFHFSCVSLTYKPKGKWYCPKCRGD", "assay": "AlphaScreen displacement of H3 1-21K4me3-Bt", "type": "binding", "conditions": "once at least in duplicate (Fig. 3c)", "description": "as §6"}, "KDM5A PHD3": {"molecular_target": "T6, KDM5A PHD3 (Homo sapiens, UniProt P29375)", "T6 construct": "KDM5A PHD3", "T6 sequence (P29375 1607-1661 limits assumed)": "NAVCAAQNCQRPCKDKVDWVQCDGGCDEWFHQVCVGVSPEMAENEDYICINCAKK", "assay": "AlphaScreen displacement of H3 1-21K4me3-Bt", "type": "binding", "conditions": "once at least in duplicate (Fig. 3c)", "description": "as §6"}, "SPIN1 TTD": {"molecular_target": "SPIN1 TTD (Homo sapiens, UniProt Q9Y657)", "sequence (Q9Y657 53-262 limits assumed)": "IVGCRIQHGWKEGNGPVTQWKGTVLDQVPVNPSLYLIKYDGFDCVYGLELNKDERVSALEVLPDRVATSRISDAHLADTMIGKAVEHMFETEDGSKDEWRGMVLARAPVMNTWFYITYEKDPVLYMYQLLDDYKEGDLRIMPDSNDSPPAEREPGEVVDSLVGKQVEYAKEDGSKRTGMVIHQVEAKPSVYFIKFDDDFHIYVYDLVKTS", "assay": "AlphaScreen displacement of H3 1-21K4me3-Bt", "type": "binding", "conditions": "once at least in duplicate (Fig. 3c)", "description": "as §6"}, "TAF3 PHD": {"molecular_target": "T7, TAF3 PHD (Homo sapiens, UniProt Q5VWG9)", "T7 construct": "TAF3 PHD", "T7 sequence (Q5VWG9 865-915 limits assumed)": "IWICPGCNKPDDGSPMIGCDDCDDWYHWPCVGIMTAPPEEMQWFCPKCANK", "assay": "AlphaScreen displacement of H3 1-21K4me3-Bt", "type": "binding", "conditions": "once at least in duplicate (Fig. 3c)", "description": "as §6"}, "KDM7A dual domain": {"molecular_target": "KDM7A dual domain (Homo sapiens, UniProt Q6ZMT4)", "sequence (Q6ZMT4 38-480 limits assumed)": "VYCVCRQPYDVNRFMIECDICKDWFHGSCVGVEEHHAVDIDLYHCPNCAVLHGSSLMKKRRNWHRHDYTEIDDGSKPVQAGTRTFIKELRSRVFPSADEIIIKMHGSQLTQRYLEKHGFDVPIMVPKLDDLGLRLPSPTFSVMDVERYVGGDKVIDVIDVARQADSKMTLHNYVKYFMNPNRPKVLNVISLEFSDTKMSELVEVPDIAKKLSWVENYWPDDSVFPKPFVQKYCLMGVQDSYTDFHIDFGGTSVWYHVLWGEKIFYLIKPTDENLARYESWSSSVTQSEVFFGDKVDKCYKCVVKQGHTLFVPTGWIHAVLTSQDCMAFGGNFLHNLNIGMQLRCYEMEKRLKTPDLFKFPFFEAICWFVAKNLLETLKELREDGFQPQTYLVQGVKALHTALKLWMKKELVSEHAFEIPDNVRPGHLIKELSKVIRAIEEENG", "assay": "MALDI-TOF-MS KDM7 activity assay (H3 peptide demethylation)", "type": "biochemical", "conditions": "from <5% without OC9", "method": "Fig. 5 KDM7 PHD-finger inhibition by OC9 modulates dual domain JmjC activity. (a) (i–iii) OC9 inhibits demethylation of H3K9me2, with or without K4me3, by KDM7B (0.4 μM) on H3 peptide (2.5 μM). […] (b) (i–iii) OC9 enhances demethylation of H3K4me3K9me2 by KDM7A (0.55 μM) on H3 peptide (2.5 μM), and (iv) enhances KDM7A (0.5 μM) demethylation of calf histone extracts (50 μg). […] Inset MALDI-TOF-MS overlays are from respective highest OC9 concentration points compared to DMSO alone. KDM7 PHD-finger only proteins had no demethylase activity (Fig. S40 ^†). Calf histone H3K9me2 was quantitated relative to H4 band intensities at each time point, normalised to DMSO at t = 0. Full Western blots available in Fig. S42. ^† Relative rates (Krel min^−1) from a one-phase decay model, average from N = 3 independent experiments. […] The enzyme heading of the panel (KDM7B / KDM7A) was put in front of them. / DMSO is the vehicle control. Its printed rates (0.30 min^-1 in a, 0.04 min^-1 in b) are included because they are printed with its name.\nIn contrast to KDM7B, KDM7A lacks activity against H3K4me3K9me2, but demethylates H3_1–21K9me2.[57] OC9, however, restored the activity of KDM7A against H3_1–21K4me3K9me2 from <5% to a level (∼30%) that approached demethylation on H3_1–21K9me2 with DMSO alone (∼40%) (Fig. 5b and S39 ^†). […]"}, "KDM2/3/4/5/6": {"tested_on": "KDM2/3/4/5/6", "assay": "KDM selectivity screening by MALDI-TOF-MS", "type": "biochemical", "conditions": "histone peptide substrates; incl. full-length KDM2A and KDM2B", "description": "The panel included full-length recombinant KDM2A and KDM2B which have the closest JmjC-domains to KDM7s, but with unrelated PHD-fingers (Fig. S43 and S44 ^†)."}, "Caco-2 cell": {"tested_on": "Caco-2 cell", "assay": "Cell permeability measurement (Caco-2)", "type": "in vitro ADME"}, "full-length KDM7B": {"tested_on": "full-length KDM7B", "assay": "Pull-down from transfected HEK293T nuclear lysates", "type": "binding", "conditions": "100-fold excess competitor", "method": "HEK293T cells were transiently transfected with either a full-length wild-type KDM7B, or an aromatic cage inactivating mutant KDM7B (Y14A, W29A).[20]\nCapture was performed with 1 μM probe incubated in pre-cleared lysate, recovered with streptavidin-conjugated magnetic beads, then washed and eluted by heating in denaturing solution. 100-fold excess OC9 or OC9 V10A were used as competitors. […] The upper left quadrant indicates >5-fold difference in recovered protein (based on T-test difference of mean log 2 (LFQ) values) and p-value threshold <0.05."}, "KDM7B PHD-finger": {"molecular_target": "T8, KDM7B PHD-finger (Homo sapiens, UniProt Q9UPP1)", "T8 construct": "KDM7B 1-66; His-tag (C); made in house", "T8 sequence (Q9UPP1 1-66 isoform Q9UPP1-2)": "T3 sequence (Q9UPP1 1-66 isoform Q9UPP1-2)", "assay": "HDX-MS", "type": "binding", "conditions": "60 minute time-course, relative to DMSO", "description": "(§7) To further evaluate the interactions of OC9 with KDM7B we used hydrogen–deuterium exchange mass spectrometry (HDX-MS), which informs on protein dynamics by following deuterium incorporation into the protein amide backbone (Fig. 2).\n(§8) The residue level view was generated by averaging mass changes across overlapping peptide fragments. Supporting data available in ESI. ^† K4me3 binding aromatic cage residues (‘YYMW’ Fig. 1a) are indicated by red asterix."}, "KDM7B dual domain": {"molecular_target": "T9, KDM7B dual domain (Homo sapiens, UniProt Q9UPP1)", "T9 construct": "dual domain (PHD-JmjC) of KDM7B; His-tag (C); made in house", "T9 sequence (Q9UPP1 37-483 limits assumed)": "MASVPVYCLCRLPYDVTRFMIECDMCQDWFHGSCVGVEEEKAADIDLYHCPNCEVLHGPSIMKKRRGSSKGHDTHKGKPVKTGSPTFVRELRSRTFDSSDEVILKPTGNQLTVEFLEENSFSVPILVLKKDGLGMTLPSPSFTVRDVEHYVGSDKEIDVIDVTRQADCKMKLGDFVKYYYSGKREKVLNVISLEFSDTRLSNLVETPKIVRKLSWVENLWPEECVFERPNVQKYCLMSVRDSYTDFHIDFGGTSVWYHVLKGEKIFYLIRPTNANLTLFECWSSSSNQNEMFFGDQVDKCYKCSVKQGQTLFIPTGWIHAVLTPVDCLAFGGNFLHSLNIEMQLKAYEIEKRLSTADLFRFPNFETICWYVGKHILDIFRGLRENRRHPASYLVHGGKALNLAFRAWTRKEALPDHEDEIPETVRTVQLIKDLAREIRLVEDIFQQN", "assay": "HDX-MS", "type": "binding", "conditions": "relative to DMSO", "description": "as §7, §8"}, "[1]": {"conditions": "50 mM HEPES, 100 mM NaCl, pH 7.4, 25 °C, 1:1 binding model"}}, "note": "Peptide text beside a SMILES is read from it."}
{"smiles": "CC(C)C[C@@H]1NC(=O)[C@H](Cc2ccc(O)cc2)NC(=O)[C@H](Cc2ccc(O)cc2)NC(=O)CSC[C@@H](C(N)=O)NC(=O)[C@H]([C@@H](C)O)NC(=O)[C@H](CCCNC(=N)N)NC(=O)[C@H](Cc2ccccc2)NC(=O)[C@H](C(C)C)NC(=O)[C@H](CO)NC(=O)[C@@H]2CCCN2C(=O)[C@H](Cc2ccc(O)cc2)NC(=O)[C@@H]2CCCN2C(=O)[C@H](Cc2c[nH]cn2)NC(=O)[C@H]([C@@H](C)O)NC1=O", "note": "[OC9] (HELM PEPTIDE1{[O=C(C[*:3])[*:2]].Y.Y.L.T.H.P.Y.P.S.V.F.R.T.C.[am]}$PEPTIDE1,PEPTIDE1,1:R3-15:R3$$$V2.0)", "values": [{"measurement": "ITC KD, HisTrx-DIDO PHD", "setting": "HisTrx-DIDO PHD", "result": "no measurable affinity"}, {"measurement": "Kd", "setting": "KDM7A PHD; [1]", "result": 0.0334, "unit": "µM"}, {"measurement": "ITC ΔH, KDM7A PHD", "setting": "KDM7A PHD; 25 °C", "result": "-46.0 ± 1.3", "unit": "kJ mol -1"}, {"measurement": "ITC N, KDM7A PHD", "setting": "KDM7A PHD; stoichiometry", "result": "0.71 ± 0.01"}, {"measurement": "Kd", "setting": "KDM7B PHD; [1]", "result": 0.0117, "unit": "µM"}, {"measurement": "ITC ΔH, KDM7B PHD", "setting": "KDM7B PHD; 25 °C", "result": "-46.2 ± 1.2", "unit": "kJ mol -1"}, {"measurement": "ITC N, KDM7B PHD", "setting": "KDM7B PHD; stoichiometry", "result": "0.99 ± 0.01"}, {"measurement": "affinity of OC9 against the KDM7 PHD-fingers greater than the natural histone peptide ligand", "setting": "KDM7B PHD; vs H3_1–21K4me3", "result": "at least 10 fold"}, {"measurement": "AlphaScreen displacement IC50, DIDO PHD", "setting": "DIDO PHD", "result": "no measurable affinity"}, {"measurement": "IC50", "setting": "DIDO PHD", "result": "> 10", "unit": "µM"}, {"measurement": "IC50", "setting": "ING2 PHD", "result": "> 5", "unit": "µM"}, {"measurement": "IC50", "setting": "KDM5A PHD3", "result": "> 5", "unit": "µM"}, {"measurement": "IC50", "setting": "SPIN1 TTD", "result": "> 2", "unit": "µM"}, {"measurement": "IC50", "setting": "TAF3 PHD", "result": "> 5", "unit": "µM"}, {"measurement": "activity of KDM7A against H3_1–21K4me3K9me2 restored by OC9 (demethylation level)", "setting": "KDM7A dual domain", "result": "~30", "unit": "%"}, {"measurement": "inhibition of other isolated KDM sub-families (KDM2/3/4/5/6)", "setting": "KDM2/3/4/5/6", "result": "no significant inhibition"}, {"measurement": "permeability in Caco-2 cell assay", "setting": "Caco-2 cell", "result": "negligible permeability"}, {"measurement": "competition of OC9-Bt pull-down of KDM7B", "setting": "full-length KDM7B", "result": "substantially reduced KDM7B recovery"}, {"measurement": "HDX-MS effect on deuterium uptake, KDM7B PHD-finger", "setting": "KDM7B PHD-finger", "result": "affected an even greater proportion"}, {"measurement": "HDX-MS effect on deuterium uptake, KDM7B dual domain", "setting": "KDM7B dual domain", "result": "only reduced deuterium uptake in peptide fragments within the PHD-finger"}]}
